The test system of one series is B. subtilis ATCC6633. Nature of the series: Antibacterial activity MIC, double-microdilution. The class given is cell-based, Bacillus subtilis. To be noted: Bacillus subtilis. In general terms: Broth dilution looks for growth in wells or tubes with falling amounts of substance.
In series [1] the test system is Prokaryotic system (prokaryotic ribosome). The settings on record: shown previously; cited from earlier work.
Series [2] can be described thus: Cell toxicity LC50 in HEK-293 cells. To be noted: human, read-out: Cell toxicity LC50 HEK-293. The class given is cell-based. How it is done:
(§1) In order to ensure suitable cell viability for each of the tested compounds at the concentrations tested, cell toxicity was evaluated for each compound by measuring the half-maximal-lethal concentration value (LC50 values) in HEK-293 and HFF (human foreskin fibroblasts) cells.
(§2) The percentages of cell viability were calculated as the ratio between the numbers of living cells in cultures grown in the presence of the tested compounds, versus cultures grown under the identical protocol but without the tested compound. The results represent averages of at least three independent experiments.
(§3) The half-maximal lethal concentration (LC50) values were obtained from fitting concentration-response curves to the data of at least three independent experiments, using GraFit 5 software.

The nature of series [3]: Cell toxicity LC50 in HFF cells. To be noted: human, read-out: Cell toxicity LC50 HFF. The class given is cell-based. As for the experimental part: as §1, §2, §3
The subject of a further series is E. coli R477/100. Nature of the series: Antibacterial activity MIC, double-microdilution. To be noted: Escherichia coli. Type of series: cell-based, Escherichia coli.
In series [4] the target is Prokaryotic system (prokaryotic ribosome). As to the kind of experiment: Prokaryotic translation inhibition, coupled transcription/translation, luciferase detection. The class given is biochemical. As for the experimental part: Prokaryotic and eukaryotic translation inhibition was quantified in coupled transcription/translation assays by using active luciferase detection, performed as described hereinabove. […] All the experiments were performed in duplicates and analogous results were obtained in three different experiments. In all biological tests, all tested aminoglycosides were in their sulfate salt forms. The concentrations reported refer to that of the free amine form of each aminoglycoside.
In all biological experiments conducted, all tested aminoglycosides were in their sulfate salt forms. The concentrations reported in Table 3 refer to that of the free amine form of each aminoglycoside. Prokaryotic and eukaryotic translation inhibition was quantified in coupled transcription/translation assays as previously described. The half-maximal concentration (IC50) values were obtained from fitting concentration response curves to the data of at least three independent experiments, using GraFit 5 software. All the experiments were performed in duplicates and analogous results were obtained in three different experiments.

The target of series [5] is Eukaryotic system (eukaryotic cytoplasmic ribosome). Nature of the series: Eukaryotic translation inhibition, coupled transcription/translation, luciferase detection. To be noted: for Prokaryotic versus Eukaryotic selectivity IC50^Euk/IC50^Pro: ratio of eukaryotic to prokaryotic translation inhibition IC50. Type of series: biochemical. The source says: Prokaryotic and eukaryotic translation inhibition was quantified in coupled transcription/translation assays by using active luciferase detection, performed as described hereinabove. […] In all biological tests, all tested aminoglycosides were in their sulfate salt forms. The concentrations reported refer to that of the free amine form of each aminoglycoside.
In all biological experiments conducted, all tested aminoglycosides were in their sulfate salt forms. The concentrations reported in Table 3 refer to that of the free amine form of each aminoglycoside. Prokaryotic and eukaryotic translation inhibition was quantified in coupled transcription/translation assays as previously described. The half-maximal concentration (IC50) values were obtained from fitting concentration response curves to the data of at least three independent experiments, using GraFit 5 software.

Series [6] has as its system nonsense mutation constructs R3X, R245X, Q70X, W1282X, G542X in HEK-293 cells. As to the kind of experiment: Ex vivo stop codon readthrough assay, p2luc constructs transfected to HEK-293 cells. The class given is cell-based, human. The settings on record: ex vivo in HEK-293, all the mutations tested, FIGS. 4, 8-10. As for the experimental part: For the ex vivo readthrough assays, the constructs harboring the R3X, R245X, Q70X and W1282X mutations were transfected to HEK-293 cells with Lipofectamine 2000 (Invitrogen) and addition of the tested compounds was performed 6 hours post transfection. The cells were harvested following 16 hours of incubation with the tested aminoglycosides. Stop codon readthrough was calculated as previously described (see, Grentzmann, G. et al., RNA, 1998, 4, p. 479).
The constructs were transfected into a human embryonic kidney cell line (HEK-293) and incubated with varying concentrations of NB122, NB123, NB54 and the control drug gentamicin, and the results are presented in FIGS. 4A-D.
As described hereinabove, the constructs of p2luc plasmid harboring the R3X, R245X, Q70X and W1282X mutations were transfected to HEK-293 cells using lipofectamine2000 and the tested compounds were added 6 hours post transfection. Cells were harvested after 16 hours incubation and luciferase activity was determined using the dual luciferase reporter assay system (Promega™). Stop codon readthrough was calculated as described previously, and the results are averages of at least three independent experiments.

Series [7] concerns nonsense mutation constructs R3X, R245X, G542X, W1282X, Q70X, R3381X (PCDH15, CFTR, IDUA, Dystrophin). As to the kind of experiment: In vitro stop codon readthrough assay, p2Luc dual luciferase, TNT reticulocyte lysate. Type of series: biochemical. To be noted: cell-free, mutations tested; comparison in words from FIGS. 2, 3, 5-7. The source says: DNA fragments derived from PCDH15, CFTR, Dystrophin and IDUA cDNAs, including the tested nonsense mutation or the corresponding wild type (wt) codon, and four to six upstream and downstream flanking codons were created by annealing following pairs of complementary oligonucleotides:
The fragments were inserted in frame into the polylinker of the p2Luc plasmid between either BamHI and SacI (p.R3X and p.R245X), or SalI and SacI (all the rest) restriction sites.
For the in vitro readthrough assays, the obtained plasm ids, with addition of the tested aminoglycosides were transcribed and translated using the TNT Reticulocyte Lysate Quick Coupled Transcription/Translation System. Luciferase activity was determined after 90 minutes of incubation at 30° C., using the Dual Luciferase Reporter Assay System (Promega™).
Initially, the influence of the chiral C5″-methyl group on readthrough potential was evaluated on the pseudo-trisaccharides NB118 and NB119 by using a dual luciferase reporter assay system as described hereinabove. Briefly, DNA fragments were cloned between BamHI and SacI restriction sites of the p2luc vector and the obtained constructs were transcribed and translated using TNT quick coupled transcription/translation system. The amount of the translated products was evaluated using the dual luciferase reporter assay system and used to calculate the suppression level.

In another series the test system is human fibroblast cells. To be noted: background; cited from earlier work.
Setting [8] is: Table 3, read-out: Translation Inhibition IC50^Pro.
Where [9] appears, read: Table 3, read-out: Translation Inhibition IC50^Euk.
Setting [10] is: Table 2, read-out: Translation Inhibition Prokaryotic system IC50.
Where [11] appears, read: Table 2, read-out: Translation Inhibition Eukaryotic System IC50.

≈ marks a conversion by molar mass, not a printed value. Read-outs that look alike come from different tables or passages of the source.

Take `NCC[C@H](O)C(=O)N[C@@H]1CC(N)[C@@H](O[C@H]2OC(CO)[C@@H](O)[C@H](O)C2N)[C@H](O[C@@H]2O[C@H](CN)[C@H](O)C2O)C1O` (stereo partly drawn) [NB54, reference compound]: the MIC in the series on B. subtilis ATCC6633 (ATCC6633, Table 1, free amine concentration, sulfate salts tested, read-out: Antibacterial activity MIC B. subtilis ATCC6633) was found to be 70 µM; in the series with E. coli R477/100 (R477/100, Table 1, read-out: Antibacterial activity MIC E. coli R477/100) it was 588 µM (≈ 327 µg/mL). Besides, the “weaker inhibitors of prokaryotic translation than gentamicin and paromomycin” value in series [1] was “about 10 fold”. Also, the CC50 turned out to be 6100 µM in series [2] (HEK-293 cells, Table 1) and 7800 ± 400 µM in series [3] (HFF (human foreskin fibroblast) cells, Table 1). In addition, the IC50 (usually the concentration needed to halve the response being measured) in series [4] (Table 1, read-out: Translation inhibition Prokaryotic system IC50) was 0.16 ± 0.02 µM; in series [4] (setting [8]), 0.16 ± 0.02 µM; in series [5] (Table 1, read-out: Translation inhibition Eukaryotic System IC50), 24 µM; in series [5] (setting [9]) it was 24 ± 1 µM. In addition, the “Prokaryotic versus Eukaryotic selectivity IC50^Euk/IC50^Pro” value in [5] was found to be 151. Moreover, the “observed efficacy of aminoglycoside-induced readthrough, order” value in series [6] is “NB122≥NB123>NB54>gentamicin”.

For the compound `CN[C@H]1[C@@H](O)C(OC2[C@H](N)CC(N)[C@@H](O[C@H]3OC(C(C)O)[C@@H](O)[C@H](O)C3N)[C@@H]2O)OCC1(C)O` (stereo partly drawn) [G418, reference compound], the MIC in the series with B. subtilis ATCC6633 (ATCC6633, read-out: Antibacterial activity MIC B. subtilis ATCC6633) is < 1.25 µM; with E. coli R477/100 (R477/100, read-out: Antibacterial activity MIC E. coli R477/100), 9 µM (≈ 4.47 µg/mL). Besides, the “in vitro readthrough activity (stop codon suppression level)” value in [7] is “the strongest readthrough inducer”. In addition, the CC50 came to 1310 ± 60 µM in [2] (Table 2) and 1590 ± 140 µM in [3] (Table 2). In addition, the IC50 in series [4] (setting [10]) is 0.009 ± 0.002 µM; in series [4] (setting [8]), 0.009 ± 0.002 µM; in series [5] (setting [11]) it was 2 ± 0.3 µM; in series [5] (setting [9]), 2 µM. Besides, the “more selective to prokaryotic versus eukaryotic ribosome” value in series [5] came to 225 fold. In addition, in the series on human fibroblast cells, the “LD50 against human fibroblast cells” value was 0.04 mg/mL.

As to `C[C@@H](O)C1O[C@H](O[C@@H]2C(N)C[C@@H](NC(=O)[C@@H](O)CCN)[C@@H](O)C2O[C@@H]2O[C@H](CN)[C@H](O)C2O)[C@@H](N)C(O)[C@@H]1O` (stereo partly drawn) [NB84, reference compound], the MIC in the series on B. subtilis ATCC6633 (ATCC6633, Table 2, read-out: Antibacterial activity MIC B. subtilis ATCC6633) came to 70 µM (≈ 39.9 µg/mL); in the series with E. coli R477/100 (R477/100, Table 2, read-out: Antibacterial activity MIC E. coli R477/100) it was 556 µM (≈ 317 µg/mL). Moreover, the “weaker inhibitors of prokaryotic translation than gentamicin and paromomycin” value in series [1] is “about 10 fold”. The CC50 was found to be 5770 ± 680 µM in [2] (HEK-293 cells, Table 2) and 16300 ± 470 µM in [3] (HFF (human foreskin fibroblast) cells, Table 2). The IC50 in [4] (setting [10]) was 0.98 ± 0.07 µM; in [4] (setting [8]), 0.98 ± 0.07 µM; in series [5] (setting [11]), 2.8 ± 0.3 µM; in series [5] (setting [9]) it was 2.8 ± 0.3 µM. For the same compound, the “Prokaryotic versus Eukaryotic selectivity IC50^Euk/IC50^Pro” value in series [5] is given as 2.9. In addition, in [6], the “observed efficacy of aminoglycoside-induced readthrough, order” value was “NB127 NB128>NB84>gentamicin”.

Source of the values: patent US11865128B2, “Aminoglycosides and uses thereof in treating genetic disorders” (Technion Research & Development Foundation Limited, priority 2010, dated 2024).
